Like-named read-outs stand apart in the source and are kept apart here. Non-standard residues stand in square brackets, D forms with d. Residues, ends and D or L forms follow the SMILES beside them.
How the values were obtained:
murine red blood cells = test: Red blood cell hemolysis; type: cell-based, mouse
Procedure, shortened: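 Hemolysis read as A560 of supernatant, scaled between saline (0%) and 1% Triton X-100 (100%) controls; peptides were serially diluted onto 5% murine red cells in saline plus 10% FBS and incubated 30 min at 37° C.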

[1] = system: S. aureus (MRSA) ATCC 33591; type: cell-based, Staphylococcus aureus; conditions: Table 9
Procedure, shortened: (§1)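 Overnight bacterial cultures, diluted 4000 times to roughly 2.5×10^5 cfu/ml, are added to 2-fold peptide dilution series. Peptide series span approximately 400-2 μg/ml as prepared in DMSO/aqueous sucrose, before mixing with inoculum. Testing follows NCCLS M7-A4 broth dilution, chiefly the microdilution format.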

[2] = system: vancomycin-resistant Enterococus faecalis (VRE)(ATCC 51575); type: cell-based, Enterococcus faecalis; parameters: key to VRE (in vitro activity): peptide concentration in μg/ml (broth dilution assay); conditions: Table 9
Procedure, shortened: as §1

[3] = media b: cation adjusted Meuller Hinton broth (MHBII)
[4] = media c: Brain Heart Infusion (BHI)
[5] = media a: anti-microbial media-3 (AM-3)

SMILES | RBC Hemolysis (HD50) (murine red blood cells) | MRSA (in vitro activity) [1, 3] | VRE (in vitro activity) [2, 4] | further results
CC(C)C[C@@H]1NC(=O)[C@@H](Cc2c[nH]c3ccccc23)NC(=O)[C@H](CCCCN)NC(=O)[C@@H](Cc2c[nH]cn2)NC(=O)[C@H](CCC(N)=O)NC(=O)[C@@H](Cc2c[nH]cn2)NC(=O)[C@H](CCCCN)NC(=O)[C@@H](Cc2c[nH]c3ccccc23)NC1=O [SEQ ID NO:87, [KHQHKWLW]] (cyclo(K[dH]Q[dH]K[dW]L[dW])) | 200 | 6 | 12 | –
CC(C)C[C@@H]1NC(=O)[C@@H](Cc2c[nH]c3ccccc23)NC(=O)[C@H](CCCCN)NC(=O)[C@@H](Cc2c[nH]cn2)NC(=O)[C@H](CO)NC(=O)[C@@H](Cc2c[nH]cn2)NC(=O)[C@H](CCCCN)NC(=O)[C@@H](Cc2c[nH]c3ccccc23)NC1=O [SEQ ID NO:88, [KHSHKWLW]] (cyclo([dW]L[dW]K[dH]S[dH]K)) | 200 | 6 | 6 | –
NCCCC[C@@H]1NC(=O)[C@@H](Cc2ccccc2)NC(=O)[C@H](Cc2c[nH]c3ccccc23)NC(=O)[C@@H](Cc2ccccc2)NC(=O)[C@H](CCCCN)NC(=O)[C@@H](CC(N)=O)NC(=O)[C@H](CCC(N)=O)NC(=O)[C@@H](CC(N)=O)NC1=O [SEQ ID NO:89, [KNQNKFWF]] (cyclo(K[dN]Q[dN]K[dF]W[dF])) | 280 | 17 | 70 | –
CC(C)C[C@H]1NC(=O)[C@H](CCCCN)NC(=O)[C@@H](CC(N)=O)NC(=O)[C@H](CCC(N)=O)NC(=O)[C@@H](CC(N)=O)NC(=O)[C@H](CCCCN)NC(=O)[C@@H](CC(C)C)NC(=O)[C@H](Cc2c[nH]c3ccccc23)NC1=O [SEQ ID NO:90, [KNQNKLWL]] (cyclo(K[dN]Q[dN]K[dL]W[dL])) | >200 | >200 | >200 | –
CC(C)C[C@@H]1NC(=O)[C@@H](Cc2c[nH]c3ccccc23)NC(=O)[C@H](CCCCN)NC(=O)[C@@H](CO)NC(=O)[C@H](CCCCN)NC(=O)[C@@H](CO)NC(=O)[C@H](CCCCN)NC(=O)[C@@H](Cc2c[nH]c3ccccc23)NC1=O [SEQ ID NO:91, [KSKSKWLW]] (cyclo(K[dS]K[dS]K[dW]L[dW])) | 200 | 6 | 12 | –
CC(C)C[C@@H]1NC(=O)[C@@H](Cc2c[nH]c3ccccc23)NC(=O)[C@H](CCCCN)NC(=O)[C@@H](CO)NC(=O)[C@H](CCC(N)=O)NC(=O)[C@@H](CO)NC(=O)[C@H](CCCCN)NC(=O)[C@@H](Cc2c[nH]c3ccccc23)NC1=O [SEQ ID NO:92, [KSQSKWLW]] (cyclo(K[dS]Q[dS]K[dW]L[dW])) | 195 | 9 | 18 | –
CC(C)C[C@@H]1NC(=O)[C@@H](Cc2c[nH]c3ccccc23)NC(=O)[C@H](CCCCN)NC(=O)[C@@H](CO)NC(=O)[C@H](CO)NC(=O)[C@@H](CO)NC(=O)[C@H](CCCCN)NC(=O)[C@@H](Cc2c[nH]c3ccccc23)NC1=O [SEQ ID NO:93, [KSSSKWLW]] (cyclo(K[dS]S[dS]K[dW]L[dW])) | 175 | 6 | 6 | –
NCCCC[C@@H]1NC(=O)[C@@H](Cc2ccc(O)cc2)NC(=O)[C@H](CCC(N)=O)NC(=O)[C@@H](Cc2ccc(O)cc2)NC(=O)[C@H](CCCCN)NC(=O)[C@@H](CC(N)=O)NC(=O)[C@H](Cc2c[nH]c3ccccc23)NC(=O)[C@@H](CC(N)=O)NC1=O [SEQ ID NO:94, [KYQYKNWN]] (cyclo(K[dN]W[dN]K[dY]Q[dY])) | >200 | >200 | >200 | –
C[C@H]1NC(=O)[C@H](CCC(N)=O)NC(=O)[C@@H](C)NC(=O)[C@H](CCCCN)NC(=O)[C@@H](C)NC(=O)[C@H](Cc2c[nH]c3ccccc23)NC(=O)[C@@H](C)NC(=O)[C@H](CCCCN)NC1=O [SEQ ID NO:95, [KAQAKAWA]] (cyclo(K[dA]Q[dA]K[dA]W[dA])) | >200 | >200 | >200 | –
C[C@H]1NC(=O)[C@H](CCCCN)NC(=O)[C@@H](CC(N)=O)NC(=O)[C@H](CCC(N)=O)NC(=O)[C@@H](C)NC(=O)[C@H](CCCCN)NC(=O)[C@@H](CC(N)=O)NC(=O)[C@H](Cc2c[nH]c3ccccc23)NC1=O [SEQ ID NO:96, [KAQNKAWN]] (cyclo(K[dA]Q[dN]K[dA]W[dN])) | >200 | >200 | >200 | –
C[C@H]1NC(=O)[C@H](CCCCN)NC(=O)[C@@H](Cc2ccccc2)NC(=O)[C@H](CCC(N)=O)NC(=O)[C@@H](C)NC(=O)[C@H](CCCCN)NC(=O)[C@@H](Cc2ccccc2)NC(=O)[C@H](Cc2c[nH]c3ccccc23)NC1=O [SEQ ID NO:97, [KAQFKAWF]] (cyclo(K[dA]Q[dF]K[dA]W[dF])) | >200 | 100 | 100 | –
NCCCC[C@@H]1NC(=O)[C@@H](Cc2ccccc2)NC(=O)[C@H](CCC(N)=O)NC(=O)[C@@H](Cc2ccccc2)NC(=O)[C@H](CCCCN)NC(=O)[C@@H](CC(N)=O)NC(=O)[C@H](Cc2c[nH]c3ccccc23)NC(=O)[C@@H](CC(N)=O)NC1=O [SEQ ID NO:98, [KFQFKNWN]] (cyclo(K[dF]Q[dF]K[dN]W[dN])) | >280 | >200 | >200 | –
CC(C)C[C@H]1NC(=O)[C@H](Cc2c[nH]c3ccccc23)NC(=O)[C@@H](Cc2ccccc2)NC(=O)[C@H](CCCCN)NC(=O)[C@@H](Cc2c[nH]c3ccccc23)NC(=O)[C@H](Cc2c[nH]cn2)NC(=O)[C@@H](CC(C)C)NC(=O)[C@H](Cc2c[nH]c3ccccc23)NC1=O [SEQ ID NO:99, [KFWLWLHW]] (cyclo(K[dF]W[dL]W[dL]H[dW])) | >25 | – | – | MRSA (in vitro activity) [1, 5]: 21; VRE (in vitro activity) ([2]; media a: AM-3): 21
CC(C)C[C@H]1NC(=O)[C@H](Cc2c[nH]c3ccccc23)NC(=O)[C@@H](Cc2ccccc2)NC(=O)[C@H](CCCCN)NC(=O)[C@@H](Cc2ccccc2)NC(=O)[C@H](CCCCN)NC(=O)[C@@H](CC(C)C)NC(=O)[C@H](Cc2c[nH]c3ccccc23)NC1=O [SEQ ID NO:100, [KFWLWLKF]] (cyclo(K[dF]W[dL]W[dL]K[dF])) | >78 | – | – | MRSA (in vitro activity) [1, 5]: 11; VRE (in vitro activity) ([2]; media a: AM-3): 10
N=C(N)NCCC[C@H]1NC(=O)[C@H](CCCCN)NC(=O)[C@@H](Cc2ccccc2)NC(=O)[C@H](Cc2c[nH]c3ccccc23)NC(=O)[C@@H](Cc2ccccc2)NC(=O)[C@H](CCCCN)NC(=O)[C@@H](Cc2ccccc2)NC(=O)[C@H](CCC(N)=O)NC1=O [SEQ ID NO:102, [KRQFKFWF]] (cyclo(K[dR]Q[dF]K[dF]W[dF])) | >200 | 12 | 12 | –
CC(C)C[C@H]1NC(=O)[C@H](CCCCN)NC(=O)[C@@H](CO)NC(=O)[C@H](CCCCN)NC(=O)[C@@H](CC(C)C)NC(=O)[C@H](Cc2c[nH]cn2)NC(=O)[C@@H](CC(C)C)NC(=O)[C@H](Cc2c[nH]cn2)NC1=O [SEQ ID NO:103, [KSKLHLHL]] (cyclo(K[dS]K[dL]H[dL]H[dL])) | >320 | >320 | >320 | –
CC(C)C[C@H]1NC(=O)[C@H](CCCCN)NC(=O)[C@@H](CO)NC(=O)[C@H](CCCCN)NC(=O)[C@@H](CC(C)C)NC(=O)[C@H](CCC(N)=O)NC(=O)[C@@H](CC(C)C)NC(=O)[C@H](CCC(N)=O)NC1=O [SEQ ID NO:104, [KSKLQLQL]] (cyclo(K[dS]K[dL]Q[dL]Q[dL])) | >200 | >200 | >200 | –
CC(C)C[C@H]1NC(=O)[C@H](CCCCN)NC(=O)[C@@H](CO)NC(=O)[C@H](CCCCN)NC(=O)[C@@H](CC(C)C)NC(=O)[C@H](CCCNC(=N)N)NC(=O)[C@@H](CC(C)C)NC(=O)[C@H](CCCNC(=N)N)NC1=O [SEQ ID NO:105, [KSKLRLRL]] (cyclo(K[dL]R[dL]R[dL]K[dS])) | >240 | – | – | MRSA (in vitro activity) ([1]; media b: cation adjusted Meuller Hinton broth (MHBII), listed as [KSKLRLRL] (105)): >240; VRE (in vitro activity) ([2]; media c: Brain Heart Infusion (BHI), listed as [KSKLRLRL] (105)): >240
CC(C)C[C@H]1NC(=O)[C@H](CCCCN)NC(=O)[C@@H](CO)NC(=O)[C@H](CCCCN)NC(=O)[C@@H](CC(C)C)NC(=O)[C@H](CCCNC(=N)N)NC(=O)[C@@H](CC(C)C)NC(=O)[C@H](CCCNC(=N)N)NC1=O [SEQ ID NO:106, [KSKLRLRL]] (cyclo(K[dL]R[dL]R[dL]K[dS])) | >400 | – | – | MRSA (in vitro activity) ([1]; media b: cation adjusted Meuller Hinton broth (MHBII), listed as [KSKLRLRL] (106)): >400; VRE (in vitro activity) ([2]; media c: Brain Heart Infusion (BHI), listed as [KSKLRLRL] (106)): >400
CC(C)C[C@@H]1NC(=O)[C@@H](Cc2c[nH]c3ccccc23)NC(=O)[C@H](CO)NC(=O)[C@@H](Cc2c[nH]c3ccccc23)NC(=O)[C@H](CCCCN)NC(=O)[C@@H](Cc2c[nH]c3ccccc23)NC(=O)[C@H](CCCCN)NC(=O)[C@@H](Cc2c[nH]c3ccccc23)NC1=O [SEQ ID NO:107, [KWKWSWLW]] (cyclo(K[dW]K[dW]S[dW]L[dW])) | 150 | 12 | 12 | –
CC[C@@H](C)[C@H]1NC(=O)[C@H](C)NC(=O)[C@@H](Cc2c[nH]c3ccccc23)NC(=O)[C@H](C(C)C)NC(=O)[C@@H](CCCNC(=N)N)NC(=O)[C@H](CCCCN)NC1=O [SEQ ID NO:113, [KRVWAI]] (cyclo(K[dR]V[dW]A[dI])) | >200 | >200 | >200 | –
